Assay results from patent US20180127748A1, “METHODS RELATING TO THE PREVENTION AND TREATMENT OF DRUG RESISTANCE” (THE GENERAL HOSPITAL CORPORATION, priority 2015, published 2018).
Entries after “also recorded” stand apart in the source; their conditions may differ.

Experiments:
KDM4 family = conditions: Wang et al. 2013; cited from earlier work
KDM4A = assay: Western blot of KDM4A protein levels in hypoxia; type: cell-based, human; conditions: RPE cells, 1% O2; for KDM4A stabilization / protein levels in hypoxia: 2 mM succinate
Protocol: Western blots were performed as in (Black et al. 2010).
Western Blots. Western blots were performed as in (Black et al. 2010). Briefly, adherent cells were either scraped directly into PBS, or washed with PBS, trypsinized and collected by centrifuging at 2,000 RPM for 5 minutes. For preparation of whole-cell lysates, cell pellets were washed once in ice-cold PBS and resuspended in RIPA lysis buffer [50 mM Tris pH 7.4, 150 mM NaCl, 0.25% Sodium Deoxycholate, 1% NP40, 1 mM EDTA, 10% Glycerol] supplemented with cOmplete protease inhibitor and PhosSTOP phosphatase inhibitor cocktails (Roche). Cells were lysed on ice for 15 minutes and immediately frozen at −80° C. for 10 minutes. Lysates were subsequently sonicated at 70% amplitude for 15 minutes in a QSonica Q700 sonicator and cleared of cell debris by centrifuging at 12,000 RPM for 15 minutes, before being analyzed by western blotting. For HIF1α and HIF2a expression, adherent cells were washed twice with ice-cold PBS and scraped directly in warmed 1× Laemmli buffer. Samples were sonicated at 70% amplitude for 15 minutes in a QSonica Q700™ and boiled at 95° C. for 10 minutes immediately prior to western blotting.

RPE cells [1] = assay: Cell cycle analysis by flow cytometry; type: cell-based, human; conditions: for cell cycle progression in hypoxia: 2 mM succinate
Protocol: Asynchronously growing, or G1/S arrested cells were prepared and fixed as in (Black et al. 2010). Cells were stained with 10 μM EdU for 1 hour prior to collection. Cell cycle was analyzed by PI staining or EdU incorporation using Click-IT EdU™ Flow Cytometry Assay Kit (Life Technologies). Flow cytometry of CD4+ T cells and cell cycle distribution were analyzed using a BD FACS ARIA II™.

KDM5A = KDM5A (Homo sapiens, UniProt P29375); conditions: Wang et al. 2013; cited from earlier work
RPE cells [2] = assay: FISH for hypoxia-dependent site-specific copy gain; type: cell-based, human
Protocol: Cells were plated onto culture dishes and allowed to adhere for 20-24 hours in normoxia (5% CO2, 21% O2, and 74% N2). For hypoxic treatment, cells were maintained in a HERA™ Cell 150 incubator (Thermo Scientific) flushed with 5% CO2, 1% O2, and balanced with N2 for the duration of the experiment. Incubator calibrations and verifications were carried out by Bianchi Associates Calibrations/Verifications.
For G1/S synchronization, cells were treated with 2 mM hydroxyurea (HU, Sigma) for 20 hours. To release, cells were washed twice with culture medium pre-conditioned in normoxia or hypoxia, and supplied with fresh pre-conditioned media. For JIB-04 treatment, normoxic cells were pre-treated with 62.5 nM JIB-04 (Xcessbio) for 24 hours, and then treated again with JIB-04 and either transferred to 1% O2 or maintained in normoxia for an additional 24 hours. […]
FISH was performed as described in (Manning et al. 2010; Black et al. 2013). For RPE cells, copy gain was scored as any cell with 3 or more distinct foci. Approximately 100 cells for each replicate were scored for all experiments. […]
FISH was performed as described in (Manning et al. 2010; Black et al. 2013). […] Images of multiple planes of fields of nuclei were acquired on an Olympus IX81™ Spinning Disk Microscope and analyzed using Slidebook 5.0™ software. […] Any foci that were touching were scored as a single copy to prevent increased numbers due to normally replicated foci. For RPE cells, copy gain was scored as any cell with 3 or more distinct foci. For 293T cells, copy gain was scored for any cell with 5 or more distinct foci. For UMRC2 cells, copy gain was scored for any cell with 6 or more foci. For SK-N-AS cells, copy gain was scored for any cell with 5 or more foci. For MDA-MB-468 cells, copy gain was scored for any cell with 5 or more foci. For MDA-MB-231 cells, copy gain was scored for any cell with 7 or more foci. Approximately 100 cells for each replicate were scored for all experiments. […]

KDM6B = KDM6B (Homo sapiens, UniProt O15054); conditions: Wang et al. 2013; cited from earlier work
RPE cells [3] = assay: Screen of chemical and metabolic stresses for site-specific copy gain (FISH); type: cell-based, human; conditions: 24 h treatment: 60 μM H2O2, 2 μg/ml Tunicamycin, 2 mM DTT, 5 mM NAC, 1 μM DMNQ
Protocol: Cells were treated with the following chemical and metabolic stresses for 24 hours at doses used in the literature: 2 μg/ml Tunicamycin (TU, Abcam), 60 μM H2O2(Thermo Fisher Scientific), reduced-serum DMEM (0.1% FBS), Glucose-free DMEM (No Gluc, GIBCO), 2 mM DTT (Sigma), 5 mM N-acetyl Cysteine (NAC, Sigma), and 1 μM 2,3-Dimethoxy-1,4-naphthoquinone (DMNQ, Sigma). For heat shock (HS) treatment, cells were incubated at 43° C. for 30 minutes and returned to 37° C. for 24 hours prior to collection.
FISH was performed as described in (Manning et al. 2010; Black et al. 2013). For RPE cells, copy gain was scored as any cell with 3 or more distinct foci. Approximately 100 cells for each replicate were scored for all experiments. All FISH experiments include at least 2 biological replicates. For each experiment at least one replicate includes FACS and western blot from the same cells used for FISH. For knockdown experiments, at least two different siRNA were used for each target. Results are presented as the average from both of the independent siRNAs.
FISH was performed as described in (Manning et al. 2010; Black et al. 2013). Probes for 1q12h, 1q telomere, chromosome 8 centromere (alpha satellite), and X centromere (alpha satellite) were purchased from Rainbow Scientific. Probes for Zebrafish BCL9 (CH73-15J19) and Zebrafish IGBP1 (CH73-223D24) were purchased as BAC clones from Children's Hospital Oakland Research Institute (CHORI BacPac) clone repository. Probes for 1q21.2 (BCL9) and 1q23.3 were purchased from Agilent (SureFISH). BACS were prepared utilizing PureLink HiPure™ Plasmid Filter Maxiprep kit (Life Technologies) using the recommended modified wash buffer. Probes were nick translated (Abbot Molecular Kit) in the presence of fluorescently labeled dTTP (Enzo Life Science). Images of multiple planes of fields of nuclei were acquired on an Olympus IX81™ Spinning Disk Microscope and analyzed using Slidebook 5.0™ software. We used a conservative scoring metric for copy gain. Any foci that were touching were scored as a single copy to prevent increased numbers due to normally replicated foci. For RPE cells, copy gain was scored as any cell with 3 or more distinct foci. For 293T cells, copy gain was scored for any cell with 5 or more distinct foci. For UMRC2 cells, copy gain was scored for any cell with 6 or more foci. For SK-N-AS cells, copy gain was scored for any cell with 5 or more foci. For MDA-MB-468 cells, copy gain was scored for any cell with 5 or more foci. For MDA-MB-231 cells, copy gain was scored for any cell with 7 or more foci. Approximately 100 cells for each replicate were scored for all experiments. All FISH experiments include at least 2 biological replicates. For each experiment, at least one replicate includes FACS and western blot from the same cells used for FISH. For knockdown experiments, at least two different siRNA were used for each target. Results are presented as the average from both of the independent siRNAs.

JmjC-containing proteins = conditions: Smith et al. 2007; Black et al. 2012; cited from earlier work

Sequence of KDM6B (O15054 whole entry, species assumed): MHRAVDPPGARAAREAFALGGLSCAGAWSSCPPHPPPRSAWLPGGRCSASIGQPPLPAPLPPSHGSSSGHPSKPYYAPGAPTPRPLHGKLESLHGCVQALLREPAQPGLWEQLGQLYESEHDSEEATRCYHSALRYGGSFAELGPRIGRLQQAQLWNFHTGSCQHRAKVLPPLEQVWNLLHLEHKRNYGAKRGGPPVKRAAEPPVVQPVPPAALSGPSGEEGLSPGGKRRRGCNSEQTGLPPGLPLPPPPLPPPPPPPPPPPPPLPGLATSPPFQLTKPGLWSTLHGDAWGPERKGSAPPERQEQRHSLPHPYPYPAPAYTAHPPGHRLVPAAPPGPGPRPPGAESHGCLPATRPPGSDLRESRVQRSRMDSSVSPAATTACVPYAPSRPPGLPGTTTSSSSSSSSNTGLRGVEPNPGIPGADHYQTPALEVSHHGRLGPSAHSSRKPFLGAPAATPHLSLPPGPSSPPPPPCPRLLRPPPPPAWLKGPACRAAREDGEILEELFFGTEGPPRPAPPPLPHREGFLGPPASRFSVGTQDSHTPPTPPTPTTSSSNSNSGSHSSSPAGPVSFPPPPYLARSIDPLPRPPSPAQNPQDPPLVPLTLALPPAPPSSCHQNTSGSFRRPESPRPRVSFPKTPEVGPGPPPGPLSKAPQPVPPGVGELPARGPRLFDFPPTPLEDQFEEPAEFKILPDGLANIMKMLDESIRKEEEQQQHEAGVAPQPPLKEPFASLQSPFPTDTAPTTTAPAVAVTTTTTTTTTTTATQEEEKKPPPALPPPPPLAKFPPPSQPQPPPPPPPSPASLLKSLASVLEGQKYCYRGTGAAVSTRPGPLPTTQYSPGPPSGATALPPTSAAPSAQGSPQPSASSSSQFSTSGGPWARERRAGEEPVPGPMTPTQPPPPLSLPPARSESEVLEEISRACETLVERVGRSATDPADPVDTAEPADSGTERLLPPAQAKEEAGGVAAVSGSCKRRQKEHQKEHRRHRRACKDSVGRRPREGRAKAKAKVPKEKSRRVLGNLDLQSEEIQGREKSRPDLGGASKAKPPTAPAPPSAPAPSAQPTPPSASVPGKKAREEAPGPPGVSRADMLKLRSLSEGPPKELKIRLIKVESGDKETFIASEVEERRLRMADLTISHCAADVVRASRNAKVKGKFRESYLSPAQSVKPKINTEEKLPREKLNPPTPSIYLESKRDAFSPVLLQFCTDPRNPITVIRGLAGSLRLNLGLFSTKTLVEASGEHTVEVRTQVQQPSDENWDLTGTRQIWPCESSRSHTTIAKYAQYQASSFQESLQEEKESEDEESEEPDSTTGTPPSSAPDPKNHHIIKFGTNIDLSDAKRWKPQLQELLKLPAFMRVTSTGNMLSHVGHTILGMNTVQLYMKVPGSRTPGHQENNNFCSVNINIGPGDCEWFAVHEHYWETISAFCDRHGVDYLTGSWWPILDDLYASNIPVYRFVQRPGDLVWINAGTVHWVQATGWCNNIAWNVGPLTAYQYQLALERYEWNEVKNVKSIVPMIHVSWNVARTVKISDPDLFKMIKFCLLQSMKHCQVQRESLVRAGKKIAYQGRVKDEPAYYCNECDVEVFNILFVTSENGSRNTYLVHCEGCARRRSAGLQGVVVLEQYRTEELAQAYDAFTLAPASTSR
Sequence of KDM5A (P29375 whole entry, species assumed): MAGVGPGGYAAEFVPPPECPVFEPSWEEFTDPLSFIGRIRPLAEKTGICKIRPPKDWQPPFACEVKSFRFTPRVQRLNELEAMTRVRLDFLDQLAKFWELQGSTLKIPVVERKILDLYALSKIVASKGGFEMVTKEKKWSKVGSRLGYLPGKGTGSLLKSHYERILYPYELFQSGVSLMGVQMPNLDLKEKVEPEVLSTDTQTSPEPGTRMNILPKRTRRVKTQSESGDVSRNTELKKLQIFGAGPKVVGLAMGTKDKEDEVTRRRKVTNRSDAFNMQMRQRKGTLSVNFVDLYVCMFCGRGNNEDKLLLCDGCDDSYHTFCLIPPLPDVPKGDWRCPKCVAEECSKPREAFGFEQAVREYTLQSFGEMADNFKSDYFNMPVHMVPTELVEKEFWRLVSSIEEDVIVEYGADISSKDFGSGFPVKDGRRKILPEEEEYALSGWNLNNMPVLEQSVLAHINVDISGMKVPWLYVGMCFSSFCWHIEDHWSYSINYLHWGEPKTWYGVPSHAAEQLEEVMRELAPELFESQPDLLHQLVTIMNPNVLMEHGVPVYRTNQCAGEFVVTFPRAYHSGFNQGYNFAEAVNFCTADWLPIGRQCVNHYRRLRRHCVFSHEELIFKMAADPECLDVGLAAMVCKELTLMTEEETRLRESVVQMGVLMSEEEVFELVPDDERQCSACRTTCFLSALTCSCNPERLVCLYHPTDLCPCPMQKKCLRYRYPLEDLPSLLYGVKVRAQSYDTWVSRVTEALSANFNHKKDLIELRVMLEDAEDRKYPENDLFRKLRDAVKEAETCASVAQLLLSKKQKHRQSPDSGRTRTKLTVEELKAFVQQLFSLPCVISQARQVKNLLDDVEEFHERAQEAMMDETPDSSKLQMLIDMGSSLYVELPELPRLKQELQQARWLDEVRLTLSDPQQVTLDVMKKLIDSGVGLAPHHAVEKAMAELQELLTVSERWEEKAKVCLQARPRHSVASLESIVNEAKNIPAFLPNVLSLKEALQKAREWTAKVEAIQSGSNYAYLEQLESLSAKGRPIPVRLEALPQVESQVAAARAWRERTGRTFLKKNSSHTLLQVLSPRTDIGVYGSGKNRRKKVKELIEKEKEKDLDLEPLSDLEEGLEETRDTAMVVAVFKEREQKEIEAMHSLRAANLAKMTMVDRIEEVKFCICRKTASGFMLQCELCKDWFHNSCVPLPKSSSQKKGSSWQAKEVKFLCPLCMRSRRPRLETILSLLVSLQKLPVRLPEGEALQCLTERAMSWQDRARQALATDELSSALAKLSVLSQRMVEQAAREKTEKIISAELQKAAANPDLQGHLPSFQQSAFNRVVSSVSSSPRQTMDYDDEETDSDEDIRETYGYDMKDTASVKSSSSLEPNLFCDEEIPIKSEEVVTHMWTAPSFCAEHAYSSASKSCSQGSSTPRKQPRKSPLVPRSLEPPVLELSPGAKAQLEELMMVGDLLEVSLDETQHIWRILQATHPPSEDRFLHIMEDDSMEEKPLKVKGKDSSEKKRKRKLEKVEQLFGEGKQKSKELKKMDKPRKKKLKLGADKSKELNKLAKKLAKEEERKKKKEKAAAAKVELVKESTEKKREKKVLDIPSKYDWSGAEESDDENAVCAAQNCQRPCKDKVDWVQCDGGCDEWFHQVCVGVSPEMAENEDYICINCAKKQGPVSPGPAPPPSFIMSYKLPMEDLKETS

Question: For `Clc1ccc(N/N=C(\c2ccccc2)c2ccccn2)nc1` [JIB-04], which “inhibition of the KDM4 family” value (KDM4 family) is on record?
Answer: inhibits

Question: And the “KDM4A protein levels in hypoxia” value (KDM4A; JIB-04 62.5 nM)?
Answer: did not substantially alter; also recorded: does not alter KDM4A protein levels

Question: What about the “cell cycle profiles in hypoxia” value (RPE cells [1]; JIB-04 62.5 nM, 1% O2) of the same molecule?
Answer: did not substantially alter; also recorded: no difference in cell cycle phases

Question: And the “inhibition of KDM5A” value (KDM5A)?
Answer: inhibits

Question: What about the “hypoxia-dependent copy gain of 1q12h (FISH)” value (“hypoxia-dependent copy gain” for short) (RPE cells [2]; 62.5 nM JIB-04 pre-treated 24 h, treated again, 1% O2 24 h) of the same molecule?
Answer: significantly reduced; also recorded: blocks hypoxia-dependent copy gain

Question: And the “inhibition of KDM6B” value (KDM6B)?
Answer: inhibits

Question: For `COC1=C(OC)C(=O)c2ccccc2C1=O` [DMNQ, 2,3-Dimethoxy-1,4-naphthoquinone], which “site-specific copy gain (FISH for 1q12h, Chr 8, 1q23.3, 1q21.2)” value (“site-specific copy gain” below) (RPE cells [3]) is on record?
Answer: did not induce site-specific copy gain; also recorded: do not induce site-specific copy gains

Question: Which “KDM4A stabilization / protein levels in hypoxia” value (KDM4A) does the source give for `O=C(O)CCC(=O)O` [succinate] here?
Answer: does not alter KDM4A protein levels

Question: And the “KDM4A stabilization / protein levels in hypoxia” value (KDM4A; listed as Succinate)?
Answer: did not alter

Question: And the “cell cycle progression in hypoxia” value (RPE cells [1]; 1% O2)?
Answer: no difference in cell cycle phases

Question: And the “cell cycle progression in hypoxia” value (RPE cells [1]; 1% O2, listed as Succinate)?
Answer: did not alter

Question: And the “inhibition of JmjC-containing proteins” value (JmjC-containing proteins)?
Answer: can be inhibited

Question: What about the “hypoxia-dependent copy gain” value (RPE cells [2]; 2 mM succinate, 48 h normoxia then 1% O2 24 h) of the same molecule?
Answer: can be suppressed

Question: And the “hypoxia-dependent copy gain” value (RPE cells [2]; 2 mM succinate, 48 h normoxia then 1% O2 24 h, listed as Succinate)?
Answer: sufficient to abrogate

Question: For Tunicamycin, which “site-specific copy gain” value (RPE cells [3]) is on record?
Answer: does not promote copy gain

Question: Which “site-specific copy gain” value (RPE cells [3]) does the source give for `OO` [H2O2] here?
Answer: does not promote copy gain

Question: Which “site-specific copy gain” value (RPE cells [3]) does the source give for `O[C@@H](CS)[C@@H](O)CS` [DTT] here?
Answer: did not induce site-specific copy gain; also recorded: do not induce site-specific copy gains

Question: For `CC(=O)N[C@@H](CS)C(=O)O` [N-Acetyl Cysteine, N-acetyl Cysteine], which “site-specific copy gain” value (RPE cells [3]) is on record?
Answer: did not induce site-specific copy gain

Question: What about the “site-specific copy gain” value (RPE cells [3]; listed as N-acetyl Cysteine) of the same molecule?
Answer: do not induce site-specific copy gains
